Laboratory results: publication PMC6001238, “Iterative Chemical Engineering of Vancomycin Leads to Novel Vancomycin Analogs With a High in Vitro Therapeutic Index” (Frontiers in Microbiology, 2018)
≈ marks a conversion by molar mass, not a printed value. Where two headings read alike, the source gives them in different places.

What was measured:
E. faecalis VSE 1 = test: MIC, broth microdilution, vancomycin-sensitive E. faecalis (VSE 1); assay type: cell-based, Enterococcus faecalis
In short: (§1)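 CLSI broth microdilution; water and uninoculated-broth controls; one arm supplemented with vancomycin, final 10 μM, given with analogue or control antibiotic.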

E. faecalis VRE 6 = test: MIC, broth microdilution, vancomycin-resistant E. faecalis VRE 6 (VanA); assay type: cell-based, Enterococcus faecalis
In short: as §1

E. faecalis VRE 53 = test: MIC, broth microdilution, vancomycin-resistant E. faecalis VRE 53 (VanA); assay type: cell-based, Enterococcus faecalis
In short: as §1

E. faecalis VRE 29 = test: MIC, broth microdilution, vancomycin-resistant E. faecalis VRE 29 (VanA); assay type: cell-based, Enterococcus faecalis
In short: as §1

E. faecalis VRE 37 = test: MIC, broth microdilution, vancomycin-resistant E. faecalis VRE 37 (VanA); assay type: cell-based, Enterococcus faecalis
In short: as §1

[1] = tested on: Murine leukemia (L1210) cells; test: Cytostatic activity, L1210 cell proliferation; assay type: cell-based; settings: mean ± SD of three experiments; highest concentration tested 250 µM; 2 days; read-out: Toxicity (IC50) L1210
In short: (§2)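 Test compounds, serially diluted, received an equal volume of cell suspension at 300,000–500,000 cells/mL. After 37°C incubation (2 days for L1210, 3 for CEM, 4 for HeLa), cells were enumerated by Coulter counting and 50%-inhibitory concentrations calculated per cell type.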

[2] = tested on: human T-lymphocyte (CEM) cells; test: Cytostatic activity, CEM cell proliferation; assay type: cell-based; settings: mean ± SD of three experiments; highest concentration tested 250 µM; 3 days; read-out: Toxicity (IC50) CEM
In short: as §2

[3] = tested on: human cervix carcinoma (HeLa) cells; test: Cytostatic activity, HeLa cell proliferation; assay type: cell-based; settings: mean ± SD of three experiments; highest concentration tested 250 µM; 4 days; read-out: Toxicity (IC50) HeLa
In short: as §2

[4] = tested on: L1210, CEM and HeLa cell lines; test: Cytostatic activity, average or summary over L1210, CEM and HeLa; assay type: cell-based
In short: as §2

[5] = tested on: S. aureus VSSA (ATCC 6538); test: MIC, broth microdilution, vancomycin-sensitive S. aureus (VSSA/MSSA, ATCC 6538); assay type: cell-based, Staphylococcus aureus
In short: as §1

S. aureus VISA/HIP5827 = test: MIC, broth microdilution, vancomycin-intermediate S. aureus VISA HIP5827; assay type: cell-based, Staphylococcus aureus
In short: as §1

S. aureus VRSA = test: MIC, broth microdilution, vancomycin-resistant S. aureus (VRSA); assay type: cell-based, Staphylococcus aureus
In short: as §1

MRSA KS2 = test: MIC, broth microdilution, MRSA KS2; assay type: cell-based, Staphylococcus aureus
In short: as §1

MRSA KS6 = test: MIC, broth microdilution, MRSA KS6; assay type: cell-based, Staphylococcus aureus
In short: as §1

MRSA KS89 = test: MIC, broth microdilution, MRSA KS89; assay type: cell-based, Staphylococcus aureus
In short: as §1

MRSA KS1 = test: MIC, broth microdilution, MRSA KS1; assay type: cell-based, Staphylococcus aureus
In short: as §1

33 clinical VRE isolates = test: MIC against a set of 33 clinical VRE isolates (range, MIC50, TI); assay type: cell-based, Enterococcus faecalis
In short: as §1

[6] = tested on: 24 clinical MRSA isolates; test: MIC against a set of 24 clinical MRSA isolates (range, MIC50, TI); assay type: cell-based, Staphylococcus aureus
In short: as §1

[7] = tested on: Clostridium difficile ATJ ribotype 014/20; test: MIC, plate drop assay, C. difficile ATJ ribotype 014/20; assay type: cell-based; settings: C. difficile ATJ ribotype 014/20
In short: (§3)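 Lawns of each strain were made in soft BHI agar (0.4%) supplemented with CaCl2⋅2H2O and MgCl2⋅6H2O. Twofold compound dilutions (10 μL) were spotted, air-dried and incubated overnight at 37°C anaerobically; MIC read as cleared spots, in triplicate with water as negative control.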

[8] = tested on: Clostridium difficile AIU ribotype 027; test: MIC, plate drop assay, C. difficile AIU ribotype 027; assay type: cell-based; settings: C. difficile AIU ribotype 027
In short: as §3

VE 148 (VanB) = test: MIC, VanB-type VRE strain VE 148; assay type: cell-based, Enterococcus; settings: VE 148, VanB; read-out: MIC
In short: as §1

VE 149 (VanB) = test: MIC, VanB-type VRE strain VE 149; assay type: cell-based, Enterococcus; settings: VE 149, VanB; read-out: MIC
In short: as §1

VE 150 (VanB) = test: MIC, VanB-type VRE strain VE 150; assay type: cell-based, Enterococcus; settings: VE 150, VanB; read-out: MIC
In short: as §1

VE 152 (VanB) = test: MIC, VanB-type VRE strain VE 152; assay type: cell-based, Enterococcus; settings: VE 152, VanB; read-out: MIC
In short: as §1

VE 157 (VanB) = test: MIC, VanB-type VRE strain VE 157; assay type: cell-based, Enterococcus; settings: VE 157, VanB; read-out: MIC
In short: as §1

VE 82 (VanC1) = test: MIC, VanC1-type VRE strain VE 82; assay type: cell-based, Enterococcus gallinarum; settings: VE 82, VanC1; read-out: MIC
In short: as §1

MRSA = test: Minimum bactericidal concentration against MRSA; assay type: cell-based, Staphylococcus aureus
Procedure: Plates were incubated overnight at 37°C and colony growth was inspected.

## CCCCc1ccc(NC(=O)CNC(=O)[C@H]2NC(=O)[C@H]3NC(=O)[C@H](NC(=O)[C@@H]4NC(=O)[C@H](CC(N)=O)NC(=O)[C@H](NC(=O)[C@@H](CC(C)C)NC)[C@H](O)c5ccc(c(Cl)c5)Oc5cc4cc(c5O[C@@H]4O[C@H](CO)[C@@H](O)[C@H](O)[C@H]4O[C@H]4C[C@](C)(N)[C@H](O)[C@H](C)O4)Oc4ccc(cc4Cl)[C@H]3O)c3ccc(O)c(c3)-c3c(O)cc(O)cc32)cc1 [Vanc-39]
E. faecalis VSE 1; Enterococcus faecalis VSE 1 (vancomycin-sensitive), read-out: MIC
  MIC: 0.20 µM (≈ 0.328 µg/mL)
E. faecalis VSE 1; VSE 1, ratio of MIC of vancomycin and MIC of analogue
  MIC-fold improvement vs. vancomycin: 8
E. faecalis VRE 6; Enterococcus faecalis VRE 6 (vancomycin-resistant), read-out: MIC
  MIC: 3.13 µM (≈ 5.13 µg/mL)
E. faecalis VRE 6; VRE 6, ratio of MIC of vancomycin and MIC of analogue
  MIC-fold improvement vs. vancomycin: 64
E. faecalis VRE 53; Enterococcus faecalis VRE 53 (vancomycin-resistant), read-out: MIC
  MIC: 50 µM (≈ 81.9 µg/mL)
E. faecalis VRE 53; VRE 53, ratio of MIC of vancomycin and MIC of analogue
  MIC-fold improvement vs. vancomycin: 8
E. faecalis VRE 29; Enterococcus faecalis VRE 29 (vancomycin-resistant), read-out: MIC
  MIC: 6.25 µM (≈ 10.2 µg/mL)
E. faecalis VRE 29; VRE 29, ratio of MIC of vancomycin and MIC of analogue
  MIC-fold improvement vs. vancomycin: 64
E. faecalis VRE 37; Enterococcus faecalis VRE 37 (vancomycin-resistant), read-out: MIC
  MIC: 6.25 µM (≈ 10.2 µg/mL)
E. faecalis VRE 37; VRE 37, ratio of MIC of vancomycin and MIC of analogue
  MIC-fold improvement vs. vancomycin: 64
[1]
  IC50: > 250 µM
[2]
  IC50: > 250 µM
[3]
  IC50: > 250 µM
[4]; average IC50 used for TI in Table S5, >250 entered as 250, read-out: IC50
  IC50: 250 µM
[4]; average of L1210, CEM and HeLa, read-out: Toxicity (IC50) Average
  IC50: > 250 µM
[4]; summary over the three cell lines, read-out: IC50 (L1210, CEM, HeLa), depending on the cell line used
  IC50: > 250 µM
[5]; Staphylococcus aureus VSSA, read-out: MIC
  MIC: 0.05 µM (≈ 0.0819 µg/mL)
[5]; VSSA, ratio of MIC of vancomycin and MIC of analogue
  MIC-fold improvement vs. vancomycin: 16
S. aureus VISA/HIP5827; Staphylococcus aureus VISA/HIP5827, read-out: MIC
  MIC: 0.39 µM (≈ 0.639 µg/mL)
S. aureus VISA/HIP5827; VISA/HIP5827, ratio of MIC of vancomycin and MIC of analogue
  MIC-fold improvement vs. vancomycin: 16
S. aureus VRSA; Staphylococcus aureus VRSA, read-out: MIC
  MIC: 0.78 µM (≈ 1.28 µg/mL)
S. aureus VRSA; VRSA, ratio of MIC of vancomycin and MIC of analogue
  MIC-fold improvement vs. vancomycin: 128
MRSA KS2; MRSA KS2, ratio of MIC of vancomycin and MIC of analogue
  MIC-fold improvement vs. vancomycin: 4
MRSA KS2; Staphylococcus aureus MRSA KS2, read-out: MIC
  MIC: 0.20 µM (≈ 0.328 µg/mL)
MRSA KS6; MRSA KS6, ratio of MIC of vancomycin and MIC of analogue
  MIC-fold improvement vs. vancomycin: 4
MRSA KS6; Staphylococcus aureus MRSA KS6, read-out: MIC
  MIC: 0.20 µM (≈ 0.328 µg/mL)
MRSA KS89; MRSA KS8, ratio of MIC of vancomycin and MIC of analogue
  MIC-fold improvement vs. vancomycin: 4
MRSA KS89; Staphylococcus aureus MRSA KS8, read-out: MIC
  MIC: 0.20 µM (≈ 0.328 µg/mL)
MRSA KS1; MRSA KS1, ratio of MIC of vancomycin and MIC of analogue
  MIC-fold improvement vs. vancomycin: 4
MRSA KS1; Staphylococcus aureus MRSA KS1, read-out: MIC
  MIC: 0.20 µM (≈ 0.328 µg/mL)
33 clinical VRE isolates; 33 clinical VRE isolates
  MIC Range: 0.78 to 12.5 µM
33 clinical VRE isolates; in vitro therapeutic index, VRE
  TI (IC50/MIC50): 80
33 clinical VRE isolates; median MIC, 33 clinical VRE isolates, read-out: MIC50
  MIC50: 3.13 µM (≈ 5.13 µg/mL)
[6]; in vitro therapeutic index, MRSA
  TI (IC50/MIC50): 641
[6]; median MIC, 24 clinical MRSA isolates, read-out: MIC50
  MIC50: 0.39 µM (≈ 0.639 µg/mL)
[7]
  MIC-fold improvement vs. vancomycin: 22
[8]
  MIC-fold improvement vs. vancomycin: 14
VE 148 (VanB)
  MIC: 3.13 µM (≈ 5.13 µg/mL)
VE 149 (VanB)
  MIC: 0.78 µM (≈ 1.28 µg/mL)
VE 150 (VanB)
  MIC: 1.56 µM (≈ 2.55 µg/mL)
VE 152 (VanB)
  MIC: 0.78 µM (≈ 1.28 µg/mL)
VE 157 (VanB)
  MIC: 0.78 µM (≈ 1.28 µg/mL)
VE 82 (VanC1)
  MIC: 0.78 µM (≈ 1.28 µg/mL)
MRSA
  MBC relative to MIC: MBC equaling their MIC values
